Reference: patent US20230125698A1, “APHERESIS COLUMN FOR TREATING RHEUMATOID ARTHRITIS” (UNIVERSITÉ PAUL SABATIER TOULOUSE III, priority 2020, published 2023)
Non-standard residues stand in square brackets, D forms with d. No end group written: not given here. Cit = NC(=O)NCCC[C@H](N)C(=O)O

What was measured:
[1] = system: anti-citrullinated peptide/protein antibodies (ACPA) in serums from AhFibA-positive rheumatoid arthritis patients; assay: ELISA reactivity of rheumatoid arthritis patient serums with respect to the citrullinated peptides; type: binding, human; parameters: key to Reactivity profile of serum with respect to the peptide: +++: strong positive; ++: medium positive; +: weak positive; empty box: negative; conditions: for Correlation between the reactivities of the serums with respect to the different peptides (Spearman): 202 serums, peptide pairs compared; for Reactivity profile of serum with respect to the peptide: ELISA
Protocol: Serum samples were obtained from 202 rheumatoid arthritis patients positive for the “AhFibA” ELISA test, which allows to detect and titer the ACPA using the citrullinated human fibrinogen as an immunosorbent.
The antigens or immunosorbents (citrullinated fibrinogen or citrullinated and non-citrullinated peptides), solubilised in PBS (1.5 mM KH2PO4 SIGMA 795488; 7 mM K2HPO4 SIGMA P3786; 0.15M NaCl SIGMA 31434; pH 7.2) at concentrations of 5 and 10 μg/mL, are adsorbed in the microtiter plate wells (MAXISORP NUNC 2023-09) by incubation overnight at 4° C., or used in avidin-biotin system: avidin 5 μg/mL in PBS incubated overnight at 4° C. and then, after washing, biotinylated peptide at 10 μg/mL in PBS, incubated 1 h at 4° C. After blocking in PBS 2% BSA (Sigma A3059) for 1 hour at 4° C. and washing in PBS 0.1% Tween®20 (SIGMA P1379), the samples to be tested are deposited diluted 1:50 (1:100 in the Avidin-Biotin system) or at equivalent corrected dilutions, in PBS 2% BSA 2MNaCl. After washing, the secondary antibody (goat anti-human IgG Fc fragment coupled to horseradish peroxidase; Southern Biotech 2040-05) is incubated for 1 hour at 4° C. After washing, the revelation is performed with a solution of Ortho-Phenylene Diamine dihydrochloride (Sigma P2788), 0.03% H2O2 (Sigma H1009), in citrate/H3PO4 buffer pH5 (0.05 M citric acid Sigma C0759; 0.1 M Na2HPO4 Prolabo 28026292) for 5 minutes at room temperature, and then stopped with a solution of H2SO4 6N (Sigma 07208). The optical density (OD) is read at 492 nm with a Multiskan Fc plate reader (ThermoScientific).
Expression of the results of the ELISA tests: for the peptides, the variation in OD between the reactivity of the citrullinated peptide and the reactivity of the non-citrullinated peptide is taken into account, each reactivity being previously subtracted from its blank (OD in the absence of sample). This gives the following formula:
ΔDO=(DOcit−DOblank cit)−(DOnoncit−DOblank noncit) [Math 1]
The ΔDO for the peptides and the OD for the citrullinated fibrinogen are considered to express the titer of the samples tested.
The inter-assay variations are corrected for by using a range of dilutions of a pool of patient serums tested in each microtiter plate. This reference pool, named P97, was made up of 97 samples of the same volume from 97 patients with a high ACPA titer. The OD values of this internal range are compared to that of reference values where each point in the range is the average of 30 determinations previously performed from this same pool. The least squares method then allows to obtain a correction factor which is applied to all the OD values obtained on the corresponding plate. This corrected OD corresponds to the titer of the sample.
The reactivity profiles of the 202 samples of patient serums with respect to the citrullinated fibrinogen and the 4 citrullinated peptides were determined by ELISA in at least two independent assays, each being done in duplicate. For the sake of reproducibility, only the microtiter plates whose internal range required the application of a correction factor between 0.5 and 2 with respect to the reference range were considered.

[2] = system: anti-citrullinated peptide/protein antibodies (ACPA) in serums from AhFibA-positive rheumatoid arthritis patients; assay: as above; type: binding, human; conditions: β60-74Cit-NH2 and/or Ac-α36-50Cit
[3] = serum n°1, ACPA-positive RA patient serum
[4] = serum n°6, ACPA-positive RA patient serum
[5] = serum n°10, ACPA-positive RA patient serum
[6] = serum n°16, ACPA-positive RA patient serum
[7] = serum n°17, ACPA-positive RA patient serum
[8] = serum n°22, ACPA-positive RA patient serum
[9] = serum n°25, ACPA-positive RA patient serum
[10] = serum n°29, ACPA-positive RA patient serum
[11] = serum n°41, ACPA-positive RA patient serum
[12] = serum n°64, ACPA-positive RA patient serum

Row | Substance | Correlation between the reactivities of the serums with respect to the different peptides (Spearman) [1] | Reactivity profile of serum with respect to the peptide [1, 3] | Reactivity profile of serum with respect to the peptide [1, 4] | Reactivity profile of serum with respect to the peptide [1, 5] | Reactivity profile of serum with respect to the peptide [1, 6] | Reactivity profile of serum with respect to the peptide [1, 7] | Reactivity profile of serum with respect to the peptide [1, 8] | Reactivity profile of serum with respect to the peptide [1, 9] | Reactivity profile of serum with respect to the peptide [1, 10] | Reactivity profile of serum with respect to the peptide [1, 11] | Reactivity profile of serum with respect to the peptide [1, 12] | Percentage of RA serums positive (reactive in ELISA) for the peptide ([1]; 202 serums from AhFibA-positive RA patients) [%] | Reactivity of the plasmas tested to the peptide [2]
1 | X1GHAKSX2PVX3GIHTS ([Cit]GHAKS[Cit]PV[Cit]GIHTS) [α621-635Cit, X1, X2 and X3 citrullyl residues; fibrinogen α-chain 621-635] | significant correlations | + | +++ | [empty] | +++ | +++ | ++ | + | +++ | [empty] | [empty] |  | 
2 | X1PAPPPISGGGYX2AX3 ([Cit]PAPPPISGGGY[Cit]A[Cit]-NH2; N-terminus assumed; SMILES CC[C@H](C)[C@H](NC(=O)[C@@H]1CCCN1C(=O)[C@@H]1CCCN1C(=O)[C@@H]1CCCN1C(=O)[C@H](C)NC(=O)[C@@H]1CCCN1C(=O)[C@@H](N)CCCNC(N)=O)C(=O)N[C@@H](CO)C(=O)NCC(=O)NCC(=O)NCC(=O)N[C@@H](Cc1ccc(O)cc1)C(=O)N[C@@H](CCCNC(N)=O)C(=O)N[C@@H](C)C(=O)N[C@@H](CCCNC(N)=O)C(N)=O) [β60-74Cit-NH2, X1, X2 citrullyl; X3 citrullyl derivative with carboxamide in place of terminal carboxyl; fibrinogen β-chain 60-74] | significant correlations | +++ | +++ | +++ | [empty] | +++ | ++ | ++ | [empty] | [empty] | +++ | 76 | most of the plasmas tested were reactive
3 | GPX1VVEX2HQSACKDS (Ac-GP[Cit]VVE[Cit]HQSACKDS) [Ac-α36-50Cit, N-terminal G acetylated; X1 and X2 citrullyl residues; fibrinogen α-chain 36-50] | no correlation was found | [empty] | [empty] | [empty] | + | + | [empty] | +++ | + | +++ | +++ |  | most of the plasmas tested were reactive
4 | VDIDIKIX1SCX2GSCS (VDIDIKI[Cit]SC[Cit]GSCS; cysteine pairing not given here) [α171-185Cit, X1 and X2 citrullyl residues; fibrinogen α-chain 171-185] | significant correlations | + | + | + | ++ | +++ | +++ | [empty] | [empty] | ++ | [empty] |  | 
